# Reference: patent publication US20250276100A1, “DEVELOPMENT OF NTSR TARGETED AGENTS FOR IMAGING AND THERAPY APPLICATIONS” (THE UNIVERSITY OF NORTH CAROLINA AT CHAPEL HILL, priority 2022, published 2025)
# Entries after “also recorded” stand apart in the source; their conditions may differ. Where two headings read alike, the source gives them in different places. Where a SMILES comes first, the peptide text is derived from it. [ ]: non-standard residue; d: D form. The star is where a group is joined. Gly(1-amidinopiperidin-4-yl) = N=C(N)N1CCC([C@H](N)C(=O)O)CC1; Gly(piperidin-4-yl) = N[C@H](C(=O)O)C1CCNCC1; NMeR = CN[C@@H](CCCNC(=N)N)C(=O)O; Tle = CC(C)(C)[C@H](N)C(=O)O; X1 = O=S(=O)(CCOCCOCCF)CC*
# Columns and labels:
# tumor = tested on: tumor
# Excerpt: Copper-64 (t1/2=12.7 hr) decays by β+ (20%) and β− emission (37%), as well as electron capture (43%), making it well suited for radiolabeling proteins, antibodies and peptides, for both PET imaging (β+) and therapy (β+ and β−). Limitations to the chelating agents currently used with ^64Cu include significant loss of ^64Cu from the conjugate, leading to high uptake in the liver. In order to overcome this limitation, a new class of bifunctional chelators (BFCs) based on the hexaazamacrobicyclic sarcophagine cage SarAr (1-N-(4-aminobenzyl)-3,6,10,13,16,19-hexaazabicyclo[6.6.6]-eicosane-1,8-diamine) was synthesized. These ligands coordinate metal ions such as Cu^2+ within the multiple macrocyclic rings comprising the Sar cage structure, yielding extraordinarily stable complexes that are inert to dissociation of the metal ion. The functionalization approach of Sar cage was improved through a direct alkylation (SN2) reaction.
# However, the kidneys have much higher tracer uptake compared with liver, while the pattern was reversed on PET imaging (Cu-64 falls off DOTA and leads to high liver uptake).
# [1] = side by side comparison of 64Cu labeled SR-CP-05 with NT peptide analogs and 3BP-227 (FIG. 8), tumor uptake and contrast; type: in vivo; details: tumor; for tissue uptake: mouse, NT peptide analogs, read-out: absolute tumor uptake value; for tissue uptake at 1 hr: FIG. 8 side by side comparison, 1 hr post injection
# Excerpt: (§1) The NTSR1 targeted imaging agent was constructed based on NTS peptide derivatives. Although high tumor-to-background contrast could be obtained, the absolute tumor uptake was moderate with fast clearance from the subject. Moreover, these NTSR1 binding peptides are generally agonists of NTSR1, which may promote tumor progress at high concentration. This may not be a concern for PET imaging due to the limited amount, but it could be a potential risk in treatment. Antagonistic SR142948A based agents were developed, the lead agent being 3BP-227. Side by side comparisons between the lead agent SR-CP-05 and previously reported agents were performed. […] Importantly, SR-CP-05 maintained >15% ID/g tumor uptake at 48 hr post injection. In contrast, the tumor uptake of 3BP-227 decreased to 2.3% ID/g at 24 hr post injection. The unique distribution profile of SR-CP-05 can provide an imaging and radionuclide-based therapy agent targeting NTSR1.
# (§2) SR-CP-05 was discovered to be well suited for therapy applications. […] Clearly, the fast clearance may be acceptable from an imaging point of view, but these ligands are not suited for therapeutic applications. […] Importantly, high contrast (tumor/background >20) was obtained at 1 hr post injection and the washout was minimal even after 48 hr post injection. […] Clearly, SR-CP-05 represents a highly promising ligand for both imaging and therapy applications.
# (§3) Solution 1) The discovery of a new NTSR1 ligand SR-CP-05 for targeted imaging and therapy. The introduction of crosslinked polyamines into SR142948A (leading to the new agent, SR-CP-05) could increase the tumor uptake by 10 times compared with peptide based agents. Although the tumor to muscle contrast was reduced somewhat right after injection, the ratio is still >20 at 1 hr post injection. More importantly, the agent stayed within the tumor for up to 48 hr, making it useful for therapeutic applications as well. Side by side comparisons were made between SR-CP-05 and previously reported agents. […] Importantly, high contrast (tumor/muscle >20) was also obtained for SR-CP-05 at 1 hr post injection and the washout is minimal after 48 hr post injection (compared with tumor/muscle >3 at 1 hr post injection for 3BP-227). […] The unique distribution profile of SR-CP-05 provides an imaging and radionuclide-based therapy targeting NTSR1.
# NTSR1 [2] = biological target: T1, NTSR1 (Homo sapiens, UniProt P30989); experiment: as above; type: in vivo
# T1 construct: from tissue; host or cells: NTSR1-positive tumour in vivo
# Excerpt: as §1, §2, §3
# NTSR1 [3] = biological target: T1, NTSR1; experiment: in vivo distribution profile of SR-CP-05 derivatives (FIG. 13)
# [4] = microPET imaging and biodistribution of 18F labeled NTS peptide agent in PC3 tumor-bearing nude mice; type: in vivo; details: male, athymic nude, mouse, PC3 tumor model; for tissue to tissue ratio at 3 h: biodistribution at 3 hr post injection
# Procedure: (§4) The arrow indicates tumor. […]
# (§5) Stabilized NTS peptide derivatives and constructed NTSR1 PET agents have been developed. A stabilized NTS analog with a Cys for ^18F labeling (Cys-NTSmut: Cys-pipGly-Pro-pipAmGly-Arg-Pro-Tyr-tBuGly-Leu-OH) was designed. […] Biodistribution studies were performed at 3 hr post injection, showing the tumor to muscle, liver, and kidney ratios at 19.4±5.5, 15.6±4.1, and 3.0±0.3, respectively. […] Despite the high contrast, its tumor retention is low.
# (§6) Robust ^18F-labeling methods for facile preparation of ^18F-NTS agents based on NT peptide derivatives were developed. As one of the commonly used PET radioisotopes, ^18F can be easily produced in high quantities on a medical cyclotron with an ideal half-life of 110 min for imaging applications. The half-life of ^18F is sufficient to allow synthesis, transportation, and imaging procedures to be extended over several hours, while the patient is subjected to a limited amount of radiation exposure. A platform technology based on vinyl sulfone and TTCO ligation was developed, both of which are highly efficient for ^18F PET probe construction. After establishing efficient ^18F labeling methods, a stabilized NTS analog was designed with a Cys for ^18F labeling (Cys-NTSmut: Cys-pipGly-Pro-pipAmGly-Arg-Pro-Tyr-tBuGly-Leu-OH). Both ^18F-VS and TTCO ligation have been used to construct ^18F labeled PET agents targeting NTSR1.
# PC3 tumor = experiment: as above; type: in vivo
# Procedure: as §4, §5, §6
# [5] = PC3 tumor model, biodistribution at 3 hr post injection
# T1 sequence (P30989 whole entry): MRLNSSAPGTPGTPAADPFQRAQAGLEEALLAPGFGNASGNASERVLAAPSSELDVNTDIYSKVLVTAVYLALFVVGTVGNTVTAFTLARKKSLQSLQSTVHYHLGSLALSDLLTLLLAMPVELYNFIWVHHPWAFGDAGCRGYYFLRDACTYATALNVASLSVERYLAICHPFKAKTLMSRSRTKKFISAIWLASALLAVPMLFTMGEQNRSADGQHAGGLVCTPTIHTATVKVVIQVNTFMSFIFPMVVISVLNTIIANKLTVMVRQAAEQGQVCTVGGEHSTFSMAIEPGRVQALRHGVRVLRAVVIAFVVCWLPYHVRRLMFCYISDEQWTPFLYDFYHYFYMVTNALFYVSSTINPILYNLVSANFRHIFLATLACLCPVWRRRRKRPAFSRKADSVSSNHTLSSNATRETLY
smiles,measurement,setting,value
CC[N+]1=C(/C=C/C=C/C=C2/N(CCCCCC(=O)NCCCC[C@H](NC(=O)CN3CCN(CC(=O)O)CCN(CC(=O)O)CCN(CC(=O)O)CC3)C(=O)NCCCCCC(=O)N[C@@H](CC(=O)O)C(=O)NCC(=O)N[C@@H](CCC(=O)O)C(=O)NC(C)C(=O)O)c3ccc4c(S(=O)(=O)O)cc(S(=O)(=O)O)cc4c3C2(C)C)C(C)(C)c2c1ccc1c(S(=O)(=O)[O-])cc(S(=O)(=O)O)cc21 (some centres unmarked) [DOTA-K(Cy5.5)-Ahx-DGEA],in vivo distribution pattern,tumor,discrepancy between optical and PET imaging
same,ex vivo distribution pattern,tumor; in vivo,discrepancy between optical and PET imaging
"CC(=O)N[C@@H](CCCCN)C(=O)N1CCC[C@H]1C(=O)N(C)[C@@H](CCCNC(=N)N)C(=O)N[C@@H](CCCNC(=N)N)C(=O)N1CCC[C@H]1C(=O)N[C@@H](Cc1ccc(O)cc1)C(=O)N[C@H](C(=O)N[C@@H](CC(C)C)C(=O)O)C(C)(C)C [NTS20.3, reference compound] (Ac-KP[NMeR]RPY[Tle]L-OH; N-terminus and C-terminus assumed)",tissue uptake,[1],~1.5 %ID/g
"CC(C)C[C@H](NC(=O)[C@@H](NC(=O)[C@H](Cc1ccc(O)cc1)NC(=O)[C@@H]1CCCN1C(=O)[C@H](CCCNC(=N)N)NC(=O)[C@@H](NC(=O)[C@@H]1CCCN1C(=O)[C@@H](N)C1CCNCC1)C1CCN(C(=N)N)CC1)C(C)(C)C)C(=O)O [NTSmut, reference compound] (H-[Gly(piperidin-4-yl)]P[Gly(1-amidinopiperidin-4-yl)]RPY[Tle]L-OH; N-terminus and C-terminus assumed)",tissue uptake,[1],~1.5 %ID/g
CNC(=O)c1ccc(-n2nc(C(=O)NC3(C(=O)O)C4CC5CC(C4)CC3C5)cc2-c2c(OC)cccc2OC)c(C(C)C)c1 (centres unmarked) [SR-CP-05],tissue uptake at 24 hr,[1]; 24 hr post injection,> 15 %ID/g
same,tissue uptake at 48 hr,[1]; 48 hr post injection,> 15 %ID/g
same,tissue uptake at 1 hr,[1],15.5 %ID/g
same,tissue uptake at 1 hr,[1]; other: injection (kind of injection not stated),15.6 %ID/g
same,tissue uptake at 1 hr,[1]; other: injection,15.6 %ID/g
same,overall side by side comparison,"NTSR1 [2]; 64Cu labeled, FIG. 8",outperforms both NT peptide analogs and other agents based on SR142948A
same,tumor/background contrast,NTSR1 [2]; 1 hr post injection,> 20
same,tumor/muscle ratio,NTSR1 [2]; 1 hr post injection,> 20
same,tumor uptake,"NTSR1 [2]; FIG. 8 side by side comparison, 1 hr post injection",> 15 % ID/g
same,tumor washout,NTSR1 [2]; after 48 hr (two days) post injection,only a minimal amount of tumor wash out
same,time the agent stayed within the tumor,NTSR1 [2]; in vivo,up to 48 hr
same,tumor uptake,NTSR1 [2]; in vivo,both high and persistent tumor uptake
same,tumor uptake higher than 3BP-227,NTSR1 [2]; side by side comparison,75%
same,liver uptake,NTSR1 [3]; in vivo,still relatively high
COc1cccc(OC)c1-c1cc(C(=O)NC2(C(=O)O)C3CC4CC(C3)CC2C4)nn1-c1ccc(C(=O)N(C)CCCN(C)C(=O)CN2CCCN3CCN(CCCN(CC(=O)O)CC3)CC2)cc1C(C)C (centres unmarked) [SR-CP-18],distribution,"NTSR1 [3]; 24 hr time point, FIG. 13",mainly showed tumor accumulation; also recorded: high contrast
same,tumor uptake relative to SR-CP-05,NTSR1 [3]; in vivo,less than half of SR-CP-05
CC(C)C[C@H](NC(=O)[C@@H](NC(=O)[C@H](Cc1ccc(O)cc1)NC(=O)[C@@H]1CCCN1C(=O)[C@H](CCCNC(=N)N)NC(=O)[C@@H](NC(=O)[C@@H]1CCCN1C(=O)[C@@H](NC(=O)[C@@H](N)CSCCS(=O)(=O)CCOCCOCCF)C1CCNCC1)C1CCN(C(=N)N)CC1)C(C)(C)C)C(=O)O [^18F-VS-Cys-NTSmut] (H-C(X1)[Gly(piperidin-4-yl)]P[Gly(1-amidinopiperidin-4-yl)]RPY[Tle]L-OH; N-terminus assumed),tissue to tissue ratio at 3 h,"[4]; tumor and kidney, read-out: tumor/kidney ratio",3 ± 0.3
same,tissue to tissue ratio at 3 h,"[4]; tumor and liver, read-out: tumor/liver ratio",15.6 ± 4.1
same,tissue to tissue ratio at 3 h,"[4]; tumor and muscle, read-out: tumor/muscle ratio",19.4 ± 5.5
same,tissue uptake,[4],1.3 %ID/g
same,"background in major tissues/organs, including blood, muscle, liver and kidneys",PC3 tumor; PC3 tumor model,low background
same,clearance from mice,PC3 tumor; PC3 tumor model,cleared out from mice within a few hours
same,tumor retention,PC3 tumor; PC3 tumor model,low
same,tumor uptake,PC3 tumor; PC3 tumor model,1.3±0.1 % ID/g
same,tumor/kidney ratio,PC3 tumor; [5],3.0±0.3
same,tumor/liver ratio,PC3 tumor; [5],15.6±4.1
same,tumor/muscle ratio,PC3 tumor; [5],19.4±5.5
same,tumor uptake in the presence of cold NTS peptide (receptor specificity),"PC3 tumor; PC3 tumor, blocking with cold NTS peptide, listed as 18F-DEG-VS-NTS",successfully blocked; also recorded: efficiently blocked
